ChEMBL document CHEMBL1135610, “Aza-peptide epoxides: a new class of inhibitors selective for clan CD cysteine proteases” (J Med Chem, 2002)
Active and inactive are the calls of the source. No cut-off for these calls is given here.

Tests used:
[1] = target: T1, Papain (Carica papaya) (UniProt P00784); test: Inhibitory activity against papain; No inhibition
T1 sequence (whole entry): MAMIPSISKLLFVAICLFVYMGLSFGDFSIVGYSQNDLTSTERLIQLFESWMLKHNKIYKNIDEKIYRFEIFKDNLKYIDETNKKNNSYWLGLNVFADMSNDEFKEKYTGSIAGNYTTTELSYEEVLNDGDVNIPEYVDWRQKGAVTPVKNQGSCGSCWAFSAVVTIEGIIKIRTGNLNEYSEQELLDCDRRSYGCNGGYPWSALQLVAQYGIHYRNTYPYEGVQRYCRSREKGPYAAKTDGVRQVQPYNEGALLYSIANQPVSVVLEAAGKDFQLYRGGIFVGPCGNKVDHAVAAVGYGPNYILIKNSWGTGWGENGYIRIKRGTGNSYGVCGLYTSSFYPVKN

[2] = target: Cathepsin B (Homo sapiens) (UniProt P07858); test: Inhibitory activity against Cathepsin B; No inhibition
[3] = tested on: Legumain (Sus scrofa); test: Inhibitory activity against legumain; No inhibition
[4] = tested on: Legumain (Sus scrofa); test: Inhibitory activity against legumain
[5] = target: T2, Caspase-1 (Homo sapiens) (UniProt P29466); test: Inhibitory activity against Caspase-1
T2 sequence (whole entry): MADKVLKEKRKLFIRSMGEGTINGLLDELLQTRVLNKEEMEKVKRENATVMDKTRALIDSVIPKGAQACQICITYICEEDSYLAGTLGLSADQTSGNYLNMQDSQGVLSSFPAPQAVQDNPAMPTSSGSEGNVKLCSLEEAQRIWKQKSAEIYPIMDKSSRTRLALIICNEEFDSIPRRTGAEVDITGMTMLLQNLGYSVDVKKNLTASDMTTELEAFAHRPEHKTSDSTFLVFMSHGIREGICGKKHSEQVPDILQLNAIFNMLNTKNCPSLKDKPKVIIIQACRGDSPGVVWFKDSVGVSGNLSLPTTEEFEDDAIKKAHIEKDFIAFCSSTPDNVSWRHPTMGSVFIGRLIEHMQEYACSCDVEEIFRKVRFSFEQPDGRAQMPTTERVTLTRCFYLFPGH

[6] = target: T3, Caspase-6 (Homo sapiens) (UniProt P55212); test: Inhibitory activity against Caspase-6
T3 sequence (whole entry): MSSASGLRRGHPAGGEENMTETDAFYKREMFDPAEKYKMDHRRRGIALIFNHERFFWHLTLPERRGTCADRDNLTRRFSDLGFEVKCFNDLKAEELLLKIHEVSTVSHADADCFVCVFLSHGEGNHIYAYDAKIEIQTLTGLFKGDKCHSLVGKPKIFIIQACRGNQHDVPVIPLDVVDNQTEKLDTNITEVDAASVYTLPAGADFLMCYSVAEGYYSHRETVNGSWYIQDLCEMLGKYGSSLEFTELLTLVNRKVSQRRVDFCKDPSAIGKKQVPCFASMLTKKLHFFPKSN

[7] = target: Caspase-8 (Homo sapiens) (UniProt Q14790); test: Inhibitory activity against Caspase-8
Chain of Caspase-8 (Homo sapiens) (Q14790 217-374 limits assumed): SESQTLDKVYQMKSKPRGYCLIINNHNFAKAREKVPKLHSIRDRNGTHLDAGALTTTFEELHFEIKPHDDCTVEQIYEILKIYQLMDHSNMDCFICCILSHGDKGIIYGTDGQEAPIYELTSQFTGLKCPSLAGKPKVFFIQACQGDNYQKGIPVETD
Chain of Caspase-8 (Homo sapiens) (Q14790 385-479 limits assumed): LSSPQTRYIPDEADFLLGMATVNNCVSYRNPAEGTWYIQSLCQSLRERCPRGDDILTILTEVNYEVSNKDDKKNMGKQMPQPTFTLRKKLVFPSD

[8] = target: T4, Caspase-3 (Homo sapiens) (UniProt P42574); test: Inhibitory activity against Caspase-3
T4 sequence (whole entry): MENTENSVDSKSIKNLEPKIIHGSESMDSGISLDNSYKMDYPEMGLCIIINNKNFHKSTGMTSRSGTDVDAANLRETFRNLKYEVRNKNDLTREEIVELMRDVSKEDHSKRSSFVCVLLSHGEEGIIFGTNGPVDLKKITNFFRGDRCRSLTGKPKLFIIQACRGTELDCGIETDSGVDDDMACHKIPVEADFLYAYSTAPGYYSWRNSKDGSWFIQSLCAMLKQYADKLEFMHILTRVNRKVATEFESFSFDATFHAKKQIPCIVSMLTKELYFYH

[9] = target: Cathepsin B (Homo sapiens) (UniProt P07858); test: Inhibitory activity against Cathepsin B
[10] = target: T1, Papain (Carica papaya); test: Inhibitory activity against papain.

k obs / 1 [1] [M⁻¹ s⁻¹]	NI [2]	NI [3]	NI [1]	k obs / 1 [4] [M⁻¹ s⁻¹]	k obs / 1 [5] [M⁻¹ s⁻¹]	k obs / 1 [6] [M⁻¹ s⁻¹]	k obs / 1 [7] [M⁻¹ s⁻¹]	k obs / 1 [8] [M⁻¹ s⁻¹]	k obs / 1 [9] [M⁻¹ s⁻¹]	k obs / 1 [10] [M⁻¹ s⁻¹]	Compound
35	inactive	inactive	–	–	–	–	–	–	–	–	CCOC(=O)C1OC1C(=O)N(CC(C)C)NC(=O)[C@@H](CC(C)C)NC(=O)[C@@H](CC(C)C)NC(=O)Cc1ccccc1 (stereo in doubt; 20)
–	inactive	–	inactive	142	–	–	–	–	–	–	CCOC(=O)C1OC1C(=O)N(CC(N)=O)NC(=O)[C@@H](C)NC(=O)[C@@H](C)NC(=O)Cc1ccccc1 (stereo in doubt; 17)
–	inactive	inactive	inactive	–	6130	< 10	< 10	< 10	–	–	CC(C)[C@H](NC(=O)CCc1ccccc1)C(=O)N[C@@H](C)C(=O)NN(CC(=O)O)C(=O)C1OC1CCc1ccccc1 (stereo not given in full)
–	–	–	–	21	36200	52	63	58	< 10	< 10	CC(C)[C@H](NC(=O)CCc1ccccc1)C(=O)N[C@@H](C)C(=O)NN(CC(=O)O)C(=O)C1OC1C(=O)OCc1ccccc1 (stereo not given in full)
